Measured values from article PMC10660337, “Mutate and Conjugate: A Method to Enable Rapid In-Cell Target Validation” (ACS Chemical Biology, 2023).
“And” between values parts separate entries of the source, which are not always exact repeats. Identical values can stand only once.

Tests used:
BRD4(1) = test system: BRD4(1); design: method as in PMID 36378954; conditions: cited from earlier work
BRD4(1)^L94C [1] = target: T1, BRD4(1)^L94C (Homo sapiens, UniProt O60885, L94C); test: Protein LCMS labeling assay 2 (diverse reactive fragment screen); assay type: binding; conditions: 1 μM protein, 4 °C, 24 h
T1 construct: Characterization of His6-BRD4(1)L94C; made in house; host or cells: E. coli BL21 (DE3)
Experimental: To investigate whether screening of an unbiased set of covalent fragments could identify ligands for BRD4(1)^L94C, we evaluated 250 previously published cysteine-reactive compounds, comprising 138 acrylamide- and 112 chloroacetamide-functionalized reactive fragments with molecular weights ranging from 152 to 300 Da.[44] Due to the higher throughput of this screening assay, the conditions varied compared to “labeling assay 1”. In this case, 1 μM BRD4(1)^L94C was incubated with either a chloroacetamide fragment (50 μM) or an acrylamide fragment (200 μM) at 4 °C for 24 h (referred to as “labeling assay 2”). Samples were then analyzed using protein LCMS, where a positive hit was classified as a single protein labeling event with a mass shift corresponding to the mass of the fragment of ±2 Da and a labeled peak of >20% intensity. Of the 250 diverse reactive compounds screened against BRD4(1)^L94C, only one chloroacetamide and one acrylamide fragment were classified as hits (Figures 5A and S10). […]
Experiments were performed in a protein LCMS assay buffer, with 10 µM protein, and 50 µM of the desired compound with a final DMSO concentration of 0.5% (Table S16). […] Data was analysed and processed using MassLynx. […] Covalent labeling was calculated using intensities of the unlabeled and labeled protein (Equation 1). […]

BRD4(1)^L94C [2] = target: T1, BRD4(1)^L94C; test: Protein LCMS labeling assay 1; assay type: binding; conditions: 50 μM compound, 10 µM protein, 37 °C, mean of three ± s.e.m., ND = not detectable
Experimental: (§1) The resulting library of 22 fragments was screened for BRD4(1)^L94C binding at a concentration of 50 μM using a protein LCMS assay (referred to as “labeling assay 1”). […] To assess the selectivity of the fragments for the labeling of C94, hits were also screened against BRD4(1)^WT under the same conditions. […] The acrylamide-based fragment, 12, labeled 98% of BRD4(1)^L94C after 4 h. While 95% of the protein was labeled once, 3% of the protein was labeled twice (Figure 5D). […] Fragment 14, designed by appending a β-dimethylaminomethyl acrylamide to the structure of 12, led to 74% of singly labeled BRD4(1)^L94C after 4 h with no labeling of BRD4(1)^WT observed (Table 1 and Figure 5E). […] However, only 9.9% of labeled BRD4(1)^L94C was observed, substantially lower than the 56% labeling observed for the corresponding 3-methyl regioisomer 10 (Table 1). […]
(§2) Assays were performed in 1.5 mL Eppendorf tubes at 37 °C and gently shaken, unless otherwise stated.
(§3) Experiments were performed in a protein LCMS assay buffer, with 10 µM protein, and 50 µM of the desired compound with a final DMSO concentration of 0.5% (Table S16). Time points were taken at 0, 1 and 4 h, unless otherwise stated, where a 20 µL sample of the reaction mix was taken, diluted with 100 µL Milli-Q water, and flash frozen. Samples were thawed immediately prior to LCMS analysis on a Waters Xevo G2-S system (Waters) fitted with a ProSwift™ RP-2H PSDVB Reversed Phase HPLC Column (Thermofisher). Data was analysed and processed using MassLynx. The total ion chromatograms (TIC) were extracted (region containing protein) and the summed scans were deconvoluted (using MaxEnt). Covalent labeling was calculated using intensities of the unlabeled and labeled protein (Equation 1). Figures were made using GraphPad Prism 7.0.
(§4) Table S16. Buffer composition for protein LCMS.
(§5) Buffer Reagent Composition Amount per 1 L
(§6) Protein LCMS Assay Buffer HEPES 25 mM 6.0 g
(§7) Protein Labelling = Intensity of Labelled Peak × 100

BRD4(1)^WT [3] = target: T2, BRD4(1)^WT (Homo sapiens, UniProt O60885); test: AlphaScreen H4_1–20(KAc)4 peptide displacement; assay type: binding; conditions: 4 h incubation at RT; mean of three ± s.e.m.
T2 construct: Characterization of His6-BRD4(1)WT; made in house; host or cells: E. coli BL21 (DE3)
Experimental: (§8) Dose response AlphaScreen™
(§9) The peptide (Table S17) was supplied at >95% purity by GenScript and was stored as 1 mM stocks in […]
(§10) Table S17. Amino acid sequences of peptides used in AlphaScreen™.
(§11) Peptide Amino Acid Sequence […]
(§12) The assay buffer (Table S18, pH 7.6) was filtered through a 0.22 μm filter before use. The buffer is stored at 4 °C as a 5× solution without bovine serum albumin (BSA), which was added on the day of use. The compounds, proteins, and peptides were dispensed into a ProxiPlate-384 Plus (Perkin Elmer) using a Thermo-Fisher electronic multi-channel pipette. For the incubation steps, the plates were sealed, shaken for 10 seconds at 600 rpm on a plate oscillator, and incubated at room temperature in darkness for 30 min or 3.5 h. Ni2+ chelate acceptor and streptavidin donor beads were prepared as a mixture in a 1:300 dilution (0.007 mg/mL final assay concentration, added to the plates and incubated for a further 30 min at room temperature. Plates were read using a SynergyTM 2 MultiMode Microplate Reader using the inbuilt AlphaScreen™ 384 ProxiPlate function: excitation 680 nm, 0.18 sec; emission […]
(§13) Table S18. Composition of assay buffer used in AlphaScreen™ experiments, adjusted to pH 7.6 using an aqueous NaOH […]
(§14) Reagent Composition Mass (mg) for 50 mL
(§15) 50 mM DMSO stock solutions of the compounds were serially diluted, and dispensed into wells (5 μL).
(§16) The protein-peptide mixes (7 μL) for each combination were prepared following the specified final assay concentration (Table S19), and dispensed into wells. Assay beads (8 μL) were added to attain a final assay volume of 20 μL. Dose response curves were obtained for each compound in triplicate, with serial 1:2 dilutions. Data was processed by fitting a four-parameter equation (Equation 2) to calculate IC50 values using Prism software.
(§17) Table S19. Final assay concentrations of each peptide-protein combination.
(§18) Protein Peptide Protein FAC (nM) Peptide FAC (nM)
(§19) Response = Bottom + Top − Bottom

BRD4(1)^L94C [4] = target: T1, BRD4(1)^L94C; test: AlphaScreen H4_1–20(KAc)4 peptide displacement; assay type: binding; conditions: mean of three ± s.e.m.
Experimental: Under these conditions, all three fragments displaced the peptide from BRD4(1)^L94C, which is consistent with the fragments binding to BRD4(1)^L94C in the expected location (Table 2). […] The longer the mutant protein and electrophile are incubated together, the more time there is for a covalent interaction to occur. […]
as §8, §9, §10, §11, §12, §13, §14, §15, §16, §17, §18, §19

BRD4(1)^WT [5] = target: T2, BRD4(1)^WT; test: Protein LCMS labeling assay 1; assay type: binding; conditions: 50 μM compound, 10 µM protein, 37 °C, 4 h; mean of three ± s.e.m.; ND = not detectable
Experimental: Before introducing a Cys mutant into the first bromodomain of BRD4 [BRD4(1)], we wanted to rule out the possibility that the native Cys residues C125 and C136 (Figures 2A and S1), would react with electrophilic fragments. To test this, we incubated two KAc-mimicking methylisoxazole-based reactive fragments (1 and 2, Figure 2C) with purified BRD4(1)^WT.
as §1, §2, §3, §4, §5, §6, §7

BRD4(1)^L94C [6] = target: T1, BRD4(1)^L94C; test: Fluorescent labeling of purified protein (CuAAC with TAMRA-PEG3-azide, in-gel fluorescence); assay type: binding; conditions: 50 μM probe, 10 μM protein, 4 h, 37 °C, then CuAAC 1 h
Experimental: (§20) When 28, 29, 30, and 42 were incubated with either purified BRD4(1)^L94C or BRD4(1)^WT and subjected to a copper(I)-catalyzed alkyne–azide click reaction (CuAAC) reaction with the fluorescent TAMRA-PEG3-azide dye, all clickable probes labeled the mutant protein and could be visualized using fluorescence imaging of a gel (Figure 6).
Figure 6 Clickable probes 28, 29, 30, and 42 covalently label BRD4(1)^L94C and undergo a subsequent CuAAC reaction with TAMRA-PEG3 azide to fluorescently label the protein, as shown by in-gel fluorescence imaging. Compounds 28, 29, 30, 41, and 42 (50 μM) were incubated with purified BRD4(1)^L94C or BRD4(1)^WT (10 μM) for 4 h at 37 °C, followed by CuAAC reaction with TAMRA-PEG3 azide for 1 h and separation of components by SDS-PAGE. For all compounds other than 30, only labeling of BRD4(1)^L94C was observed. […]
Fluorescent labeling of purified proteins
Assays were performed in 1.5 mL Eppendorf tubes at 37 °C, and gently shaken, unless otherwise stated.
The desired click probe (50 µM) was incubated with protein (10 µM) in protein LCMS buffer for 4 h, after which TAMRA-PEG3-Azide (200 µM), TCEP·HCl (1 mM), TBTA (100 µM), and CuSO4 (1 mM) were added and incubated for a further 1 h at room temperature in the dark. A 25 µL sample of the […]
reaction mix was taken and 8 µL of Lamelli buffer added, and the samples denatured by heating at 95 °C for 10 min. Samples were separated by gel electrophoresis on NuPAGE™ 4–12%, Bis-Tris precast polyacrylamide gels (Thermofisher). Following electrophoresis, gels were stained for 15 min with InstantBlueTM Coomasie® stain (Abcam), destained, and imaged using Bio-rad molecular imager.
Bio-rad Image Lab 6.1 was used to process the data. […]
InstantBlueTM Coomasie® stain (Abcam), destained, and imaged using Bio-rad molecular imager. […]
MEM media. Cells were then harvested and lysed using the previously described protocol above. […]

BRD4(1)^WT [7] = target: T2, BRD4(1)^WT; test: as above; assay type: binding; conditions: 50 μM probe, 10 μM protein, 4 h, 37 °C, then CuAAC 1 h
Experimental: as §20
Figure 6 Clickable probes 28, 29, 30, and 42 covalently label BRD4(1)^L94C and undergo a subsequent CuAAC reaction with TAMRA-PEG3 azide to fluorescently label the protein, as shown by in-gel fluorescence imaging. Compounds 28, 29, 30, 41, and 42 (50 μM) were incubated with purified BRD4(1)^L94C or BRD4(1)^WT (10 μM) for 4 h at 37 °C, followed by CuAAC reaction with TAMRA-PEG3 azide for 1 h and separation of components by SDS-PAGE. For all compounds other than 30, only labeling of BRD4(1)^L94C was observed.
as §15
The protein-peptide mixes (7 μL) for each combination were prepared following the specified final assay concentration (Table S19), and dispensed into wells. […]
Assays were performed in 1.5 mL Eppendorf tubes at room temperature, in the dark, and gently shaken, unless otherwise stated. […] Data was analysed and processed using MassLynx. […]
Gels were imaged for fluorescence using Bio-rad molecular imager and then stained for 15 min with […]

For `Cc1noc(C)c1-c1ccccc1` [4-phenyl-3,5-dimethylisoxazole], the IC50 (BRD4(1)) is listed as 50 µM.
In the case of `O=C(CCl)Nc1nc(-c2cccs2)cs1` [Compound 26], the “Labeling of BRD4(1)^L94C, labeling assay 2” value (BRD4(1)^L94C [1]; chloroacetamide fragment 50 μM) is reported as 27%.
In the case of `C=CC(=O)Nc1ccc(N2CCCC2=O)c(OC)c1` [Compound 27], the “Labeled Protein (%) L94C 1 h” value (BRD4(1)^L94C [2]; 1 h) is reported as 17 ± 1.0%, the “Labeled Protein (%) L94C 4 h” value (BRD4(1)^L94C [2]) is reported as 61% and 61 ± 2.5% and the IC50 (BRD4(1)^WT [3]) is reported as greater than 100 µM. For the same molecule, the IC50 (BRD4(1)^L94C [4]; IC50 (μM) L94C 1 h, 1 h incubation at RT) was 15.5 ± 3.2 µM, the IC50 (BRD4(1)^L94C [4]; IC50 (μM) L94C 4 h, 4 h incubation at RT) was 2.48 µM and 2.5 µM and the “Labeled Protein (%) WT 4 h” value (BRD4(1)^WT [5]) was “no covalent binding”. For the same molecule, the “Labeling of BRD4(1)^L94C, labeling assay 2” value (BRD4(1)^L94C [1]; acrylamide fragment 200 μM) was 89%.
In the case of `C#CCN(C)C/C=C/C(=O)Nc1ccc(N2CCCC2=O)c(OC)c1` [Compound 41], the “Labeled Protein (%) L94C 4 h” value (BRD4(1)^L94C [2]) is reported as 2% and 2.0 ± 0.0%, the “Labeling of purified BRD4(1)^L94C, in-gel fluorescence” value (BRD4(1)^L94C [6]) is reported as “no labeling” and the “Labeling of purified BRD4(1)^WT, in-gel fluorescence” value (BRD4(1)^WT [7]) is reported as “no labeling”.
